Source: US11242374B2, “Minimally-invasive and activity-dependent control of excitable cells” (Brown University, priority 2015, dated 2022)

How the values were obtained:
[1] = test system: neocortical neurons transfected with Gaussia luciferase; assay: IVIS imaging of mouse brain expressing Gaussia luciferase after intravenous coelenterazine; type: in vivo; details: intravenous injection several weeks after transfection; right hemisphere
Procedure: FIG. 2 is a photograph showing an example in which neocortical neurons in the right hemisphere were transfected with a Gaussia luciferase.
Several weeks later, coelenterazine was administered intravenously to the mouse, and an image of the mouse's head was taken with IVIS® imaging system (FIG. 2).

[2] = test system: neocortical neurons expressing eGLuc-Mac; assay: action potential firing in cultured neocortical neurons expressing eGLuc-Mac; type: cell-based; details: cell expressing fusion protein containing eGLuc-Mac (hyperpolarization)
From the text: (§1) The neurons were modified to express fusion proteins including a luminescent protein (enhanced Gaussia luciferase (eGLuc)) and either VChR1 or Mac. Successful expression of the full construct in the neocortical neurons was confirmed by observation of the fluorescence of the reporter protein (upper middle panel titled Fluorescence in FIG. 3). Ability of eGLuc to luminesce was unaffected by the inclusion of light-gated ion channel (VChR1 or Mac), as shown in the upper right panel titled Luminescence in FIG. 3).

[3] = test system: neocortical neurons expressing eGLuc-VChR1; assay: action potential firing in cultured neocortical neurons expressing eGLuc-VChR1; type: cell-based; details: cell expressing fusion protein containing eGLuc-VChR1 (depolarization)
From the text: as §1

[4] = test system: TRN neurons expressing eGLuc-VChR1; assay: in vitro slice recordings of TRN neurons transduced with AAV2/9-hSyn-eGLuc-VChR1, CTZ superfusion; type: cell-based, mice
Procedure: (§2) Mice were injected with AAV2/9-hSyn-eGLuc-VChR1 into the thalamus of mice, and in vitro slice experiments were performed 7-12 days later. […] VPm expression was negligible except from TRN axons. Expressing TRN neurons were electrophysiologically normal, and strongly responsive to LED light pulses (FIGS. 5B and 5C). The short latencies and other properties of these responses indicate robust VChR1 expression. Superfusion of the luciferin CTZ (100 μM) caused ca. 1-3 mV reversible depolarization (FIGS. 5D and 5E; N=3 cells, 2 mice). […] At 20 days post viral injection, a 16-contact laminar electrode was used to record from the TRN and neighboring relay nuclei under light isoflurane anesthesia (0.5%). […] Spike shape also indicated relay neuron and not TRN identity. […] These combined effects are consistent with TRN-driven hyperpolarization of this neuron and a shift to burst mode.

[5] = test system: rat cortical neurons expressing LMO3; assay: multi electrode array (MEA) recording and luminescence of cortical neurons expressing LMO3 (sbGLuc-VChR1); type: cell-based
From the text: FIGS. 12A-12D show multi electrode arrays used in the in vitro experiments on rat cortical neurons. FIG. 12A is a schematic of the multi electrode array. FIGS. 12B and 12C are images of the electrode array. FIG. 12D is a fluorescent image of MEA culture of rat cortical neurons transduced with AAV-hSyn-LMO3, where LMO3 is a fusion of sbGLuc and VChR1. Neurons are visible in fluorescent green, because of the expression of LMO3, which includes EYFP.
FIG. 13 is a series of graphs showing the luminescence and neuronal activity of rat cortical neurons in response to contacting with coelenterazine (CTZ) or with the vehicle.
Excitable cells (rat cortical neurons) expressing a light-gated ion channel (VChR1) fused to a luminescent protein (Gaussia luciferase) were cultured on multi electrode arrays (MEA), as shown in FIGS. 12A-12D. The results are shown in FIG. 13 Under continuous recording MEA dishes were injected (see arrows) with CTZ or with vehicle. Upon injection a pronounced artifact was observed (see FIG. 13). […] In contrast, vehicle injection causes the artifact, but neuronal spiking pattern is not altered. […] Neurons in the culture express LMO3 (luminopsins 3, a fusion of sbGLuc and VChR1). Upon application of substrate (CTZ), but not of vehicle, the luciferase emits light which activates the channelrhodopsin, resulting in changed spiking activity (see before and after CTZ). […]

[6] = test system: TRN and neighboring relay nuclei (eGLuc-VChR1); assay: in vivo laminar electrode recording from TRN and neighboring relay nuclei after IV CTZ; set-up: species or system mice; details: ca. 150 μg CTZ IV (tail vein)
Procedure: as §2

SMILES: Oc1ccc(Cc2nc3c(Cc4ccccc4)nc(-c4ccc(O)cc4)cn3c2O)cc1 [CTZ, coelenterazine]
- bioluminescence emission through the scalp [1]: emitted brightly
- spontaneous action potential firing [2]: suppression of spontaneous action potential firing
- spontaneous action potential firing [3]: increase in spontaneous action potential firing
- onset of stimulus-evoked spike bursts ([4]; CTZ-evoked depolarization vs control): delaying onset of stimulus-evoked spike bursts
- reversible depolarization ([4]; superfusion of CTZ 100 μM, N=3 cells, 2 mice): 1-3 mV
- neuronal spiking pattern on MEA ([5]; CTZ injected into MEA dishes, vehicle does not alter pattern): desynchronized spiking
- luminescence of neurons ([5]; contacting with CTZ vs vehicle): results in luminescence
- burst rate in Cell 2 (events with 100 msec prior inactivity and >95 Hz spike rate) [6]: increase in burst rate
- firing rate in other cells (Cell 2, relay neuron) [6]: decreases in firing rate
- firing in multi-unit activity and well-isolated single neurons (Cell 1) ([6]; putative TRN, 20 days post viral injection, isoflurane 0.5%): firing increased
